Assay results from the supplement of paper PMC10307832.

What was measured:
Experiment in all cases: relative viability (nuclei count vs DMSO), 5 days (fraction); higher = more cells survive
Tosedostat + Lapatinib = compound: CC(C)C[C@@H](C(=O)N[C@H](C(=O)OC1CCCC1)c1ccccc1)[C@H](O)C(=O)NO [Tosedostat] + CS(=O)(=O)CCNCc1ccc(-c2ccc3ncnc(Nc4ccc(OCc5cccc(F)c5)c(Cl)c4)c3c2)o1 [Lapatinib] (partner 2 µM)
Method in brief: (§1)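 For relative viability, nuclei counts in treated wells were divided by those in vehicle wells. Lung cancer cell lines had been pin-tool dosed in 1536-well plates the day after seeding and cultured for 5 days, then fixed and stained in one step (final 0.05% Triton X-100, 1% formaldehyde, 1 ug/ml Hoechst) and imaged at 4×. Doses were one drug alone or a fixed anchor-drug dose plus five library-drug doses (not always all listed) in √10 steps, and values are duplicate-plate medians.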

Tosedostat + Dasatinib = compound: CC(C)C[C@@H](C(=O)N[C@H](C(=O)OC1CCCC1)c1ccccc1)[C@H](O)C(=O)NO [Tosedostat] + Cc1nc(Nc2ncc(C(=O)Nc3c(C)cccc3Cl)s2)cc(N2CCN(CCO)CC2)n1 [Dasatinib] (partner 0.075 µM)
Method in brief: as §1

[1] = compound: CC1=NN=C(O1)C2=NN=C(C=C2)N3CCC(CC3)OC4=C(C=CC(=C4)F)Cl + C[C@@H](Oc1cc(-c2cnn(C3CCNCC3)c2)cnc1N)c1c(Cl)ccc(F)c1Cl [Crizotinib] (partner 1 µM)
Method in brief: as §1

[2] = compound: CC1=NN=C(O1)C2=NN=C(C=C2)N3CCC(CC3)OC4=C(C=CC(=C4)F)Cl + O=C(c1cc(Cc2n[nH]c(=O)c3ccccc23)ccc1F)N1CCN(C(=O)C2CC2)CC1 [Olaparib] (partner 8 µM)
Method in brief: as §1

Cell Line | relative viability (Tosedostat + Lapatinib; first compound 0.02 µM) | relative viability (Tosedostat + Lapatinib; first compound 0.06325 µM) | relative viability (Tosedostat + Lapatinib; first compound 0.2 µM) | relative viability (Tosedostat + Lapatinib; first compound 0.6325 µM) | relative viability (Tosedostat + Lapatinib; first compound 2 µM) | relative viability (Tosedostat + Dasatinib; first compound 0.02 µM) | relative viability (Tosedostat + Dasatinib; first compound 0.06325 µM) | relative viability (Tosedostat + Dasatinib; first compound 0.2 µM) | relative viability (Tosedostat + Dasatinib; first compound 0.6325 µM) | relative viability (Tosedostat + Dasatinib; first compound 2 µM) | relative viability ([1]; first compound 0.253 µM) | relative viability ([1]; first compound 0.8 µM) | relative viability ([1]; first compound 2.53 µM) | relative viability ([1]; first compound 8 µM) | relative viability ([2]; first compound 0.253 µM) | relative viability ([2]; first compound 0.8 µM) | relative viability ([2]; first compound 2.53 µM) | relative viability ([2]; first compound 8 µM)
NCI-H1734 | 1.23 | 1.11 | 0.997 | 1.01 | 0.763 | 0.523 | 0.477 | 0.436 | 0.466 | 0.446 | 0.652 | 0.688 | 0.62 | 0.626 | 0.544 | 0.509 | 0.57 | 0.472
NCI-H1755 | 1.1 | 1.08 | 1.09 | 1.1 | 1.13 | 0.436 | 0.403 | 0.444 | 0.42 | 0.361 | 0.578 | 0.576 | 0.619 | 0.512 | 0.65 | 0.616 | 0.657 | 0.562
NCI-H1792 | 0.988 | 1.04 | 0.878 | 0.863 | 0.823 | 0.777 | 0.756 | 0.743 | 0.79 | 0.691 | 0.414 | 0.447 | 0.378 | 0.451 | 0.264 | 0.376 | 0.337 | 0.364
NCI-H1915 | 1.08 | 0.938 | 0.947 | 0.953 | 0.956 | 0.321 | 0.348 | 0.306 | 0.277 | 0.215 | 0.445 | 0.312 | 0.311 | 0.253 | 0.202 | 0.17 | 0.184 | 0.162
NCI-H1944 | 0.94 | 0.836 | 0.854 | 0.81 | 0.904 | 0.226 | 0.211 | 0.215 | 0.208 | 0.194 | 0.448 | 0.54 | 0.566 | 0.529 | 0.289 | 0.337 | 0.359 | 0.344
NCI-H1975 | 0.835 | 0.966 | 0.86 | 0.703 | 0.751 | 0.369 | 0.358 | 0.35 | 0.268 | 0.34 | – | 0.918 | 0.782 | 0.777 | 0.466 | 0.574 | 0.518 | 0.533
NCI-H1993 | 0.904 | 0.997 | 0.857 | 0.87 | 0.734 | 0.471 | 0.561 | 0.502 | 0.519 | 0.505 | 0.779 | 0.806 | 0.794 | 0.993 | 0.894 | 0.758 | 0.855 | 0.856
NCI-H2009 | 1.25 | 0.956 | 1.03 | 0.78 | 0.663 | 0.279 | 0.334 | 0.226 | 0.267 | 0.24 | 0.565 | 0.529 | 0.547 | 0.465 | 0.363 | 0.39 | 0.421 | 0.375
NCI-H2023 | 0.94 | 0.953 | 0.795 | 0.457 | 0.753 | 0.585 | 0.571 | 0.552 | 0.518 | 0.505 | 0.453 | 0.493 | 0.455 | 0.441 | 0.311 | 0.274 | 0.307 | 0.235
NCI-H2085 | 0.568 | 0.825 | 0.827 | 0.743 | 0.836 | 0.205 | 0.234 | 0.256 | 0.276 | 0.307 | 0.76 | 0.656 | 0.821 | 0.683 | 0.636 | 0.604 | 0.709 | 0.553
NCI-H2087 | 1.08 | 1.1 | 1.1 | 0.907 | 0.844 | 1.17 | 0.936 | 0.908 | 0.688 | 0.869 | 0.652 | 0.598 | 0.544 | 0.486 | 0.502 | 0.34 | 0.485 | 0.425
NCI-H2126 | 0.705 | 0.754 | 0.83 | 0.76 | 0.674 | 0.611 | 0.662 | 0.636 | 0.63 | 0.558 | 0.921 | 0.858 | 0.891 | 0.841 | 0.816 | 0.697 | 0.767 | 0.76
NCI-H2170 | 0.25 | 0.258 | 0.273 | 0.289 | 0.276 | 0.575 | 0.514 | 0.558 | 0.63 | 0.451 | 0.553 | 0.573 | 0.638 | 0.449 | 0.303 | 0.248 | 0.342 | 0.256
NCI-H2228 | 1.11 | 0.991 | 0.822 | 0.784 | 0.533 | 0.51 | 0.497 | 0.494 | 0.344 | 0.338 | 0.357 | 0.408 | 0.533 | 0.42 | 0.461 | 0.291 | 0.702 | 0.637
